The structures appear in SMILES notation. Read-outs that look alike come from different tables or passages of the source. Bounds are passed on as bounds.

Data set [1] has as its target T1, CYP2B6 (Homo sapiens, UniProt P20813).
T1 construct: from tissue; host or cells: human liver microsomes, mixed-gender pool of 200
T1 sequence (P20813 1-491): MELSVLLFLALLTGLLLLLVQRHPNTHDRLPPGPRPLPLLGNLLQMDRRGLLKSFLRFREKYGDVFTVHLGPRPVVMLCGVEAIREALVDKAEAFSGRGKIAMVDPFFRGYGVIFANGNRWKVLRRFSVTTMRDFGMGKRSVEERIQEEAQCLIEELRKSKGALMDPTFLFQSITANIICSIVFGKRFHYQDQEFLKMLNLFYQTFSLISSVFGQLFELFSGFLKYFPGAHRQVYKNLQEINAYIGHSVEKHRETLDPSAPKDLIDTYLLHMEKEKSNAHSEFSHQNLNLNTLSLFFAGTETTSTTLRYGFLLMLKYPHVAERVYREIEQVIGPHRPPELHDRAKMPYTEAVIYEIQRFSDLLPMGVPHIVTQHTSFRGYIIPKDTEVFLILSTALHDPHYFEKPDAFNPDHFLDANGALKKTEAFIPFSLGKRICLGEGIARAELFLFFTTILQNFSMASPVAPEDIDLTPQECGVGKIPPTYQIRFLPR
Description: In-vitro CYP inhibition study, CYP2B6. The conditions noted are these: human liver microsomes, substrate Bupropion (90 μM). It is filed as in vitro ADME. On the procedure: (§1) Incubations were conducted using a cocktail of seven prototypical CYP substrates to ascertain the potential of each test article to inhibit the metabolism of concomitantly administered drugs. A mixed-gender pool of 200 human liver microsomal samples was used for this study. Incubations were conducted at approximately 37° C. in 200 μL incubation mixtures (pH 7.4) containing water, potassium phosphate buffer (50 mM), MgCl2 (3 mM), EDTA (1 mM), an NADPH regenerating system (NADP [1 mM], glucose 6 phosphate [5 mM], glucose 6 phosphate dehydrogenase [1 Unit/mL]), and probe substrate (i.e., a seven substrate cocktail) at the final concentrations indicated in Table 9. Reactions were initiated by the addition of NADPH-regenerating system and were automatically terminated at approximately 5 minutes by the addition of internal standard mixed in stop reagent, acetonitrile. The samples were centrifuged at 920×g for 10 minutes at 10° C. The supernatant fractions were analyzed by LC-MS/MS. To examine its ability to act as a time-dependent inhibitor of CYP enzymes, each test article (at the same concentrations used to evaluate direct inhibition, (i.e. 0, 0.02, 0.06, 0.2, 0.6, 2, 6, 20 μM) was pre-incubated at 37±2° C. with NADPH-fortified human liver microsomes for approximately 30 minutes. The pre-incubations were initiated by the addition of NADPH-regenerating system. After 30 min, probe substrate incubations were initiated by the addition of probe substrate cocktail. Incubations were terminated and samples were analyzed by LC-MS/MS. When inhibition was observed, the data were processed with a LIMS for the determination of IC50 values by utilizing the Levenberg-Marquardt algorithm to perform non-linear regression fitting of the data to the following 4-parameter sigmoidal-logistic IC50 equation:
(§2) As percent of control values are utilized, the minimum value (Min) is set to zero and the maximum value (Max) is set to 100 (or other values, as appropriate). The LIMS calculates an IC50 value only when it lies within the concentration range of the inhibitor studied. Therefore, when an IC50 value falls outside the concentration range studied, the IC50 values are reported to be greater than the highest concentration of the test article evaluated.
Background: Microsomes from liver hold many membrane-bound enzymes, among them those of drug oxidation.

Data set [2] addresses T2, CYP2C19 (Homo sapiens, UniProt P33261).
T2 construct: from tissue; host or cells: human liver microsomes, mixed-gender pool of 200
As to the kind of experiment: In-vitro CYP inhibition study, CYP2C19. The settings on record: human liver microsomes, substrate S-Mephenytoin (60 μM). In kind it is in vitro ADME. As to the method:
as §1, §2

Data set [3] has as its target T3, CYP2C8 (Homo sapiens, UniProt P10632).
T3 construct: from tissue; host or cells: human liver microsomes, mixed-gender pool of 200
T3 sequence (P10632 1-490): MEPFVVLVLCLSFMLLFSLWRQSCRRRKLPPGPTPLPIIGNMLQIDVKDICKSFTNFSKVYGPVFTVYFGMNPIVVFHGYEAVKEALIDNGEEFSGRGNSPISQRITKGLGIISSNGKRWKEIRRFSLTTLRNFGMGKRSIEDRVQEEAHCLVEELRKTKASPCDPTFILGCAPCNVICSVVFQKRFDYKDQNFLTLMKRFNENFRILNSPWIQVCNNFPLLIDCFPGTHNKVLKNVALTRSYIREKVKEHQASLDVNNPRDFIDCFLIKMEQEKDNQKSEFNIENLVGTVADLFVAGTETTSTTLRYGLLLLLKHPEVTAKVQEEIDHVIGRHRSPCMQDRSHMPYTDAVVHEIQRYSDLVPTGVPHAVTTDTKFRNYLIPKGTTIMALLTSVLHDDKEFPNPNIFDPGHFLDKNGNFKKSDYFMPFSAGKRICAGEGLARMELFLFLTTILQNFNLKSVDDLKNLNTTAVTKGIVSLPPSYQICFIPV
As to the kind of experiment: In-vitro CYP inhibition study, CYP2C8. The settings on record: human liver microsomes, substrate Paclitaxel (5 μM). In kind it is in vitro ADME. On the procedure: as §1, §2

The subject of data set [4] is CYP3A4/5. As to the kind of experiment: In-vitro CYP inhibition study, CYP3A4/5. It is filed as in vitro ADME. The conditions noted are these: both sexes, human, human liver microsomes, pH 7.4, probe Midazolam (3 μM), substrate Midazolam (3 μM). On the procedure:
as §1, §2

In data set [5] the test system is CYP1A2 mRNA expression. The conditions noted are these: human, hepatocytes, 24 h.
Description: (§3) A single preparation of characterized cryopreserved human hepatocytes isolated from non-transplantable human livers was treated in this study. Triplicate wells for each of the cultures were treated in 48-well plates with supplemented MCM (37±2° C.) containing 0.1% v/v DMSO (solvent control), one of three concentrations of each test article (1, 10 and 20 μM) or positive control CYP enzyme inducers omeprazole (50 μM), phenobarbital (1000 μM) or rifampin (20 μM). The cultures were incubated in a humidified culture chamber (37±2° C. at 95% relative humidity, 95/5% air/CO2). Approximately 24 h after treatment, hepatocytes were lysed in Buffer RLT reagent containing β-mercaptoethanol (100:1). The medium was aspirated, and Buffer RLT was added to each well. The cell lysates were prepared by repeated pipetting and shaking. Total RNA was isolated using the RNeasy Mini Kit. RNA quality and concentration were determined by measuring absorbance at 260 and 280 nm on a plate reader. Single-stranded cDNA was prepared from RNA with the RT Master Mix. The RT Master Mix comprises 10×RT buffer, 25× deoxyNTPs, 10× Random primers, RNase Inhibitor (20 U/μL), MultiScribe reverse transcriptase (50 U/μL) and RNase-free water. The RT Master Mix was added to each RNA sample to complete the components of the reaction. No template controls (NTCs) were included in the analysis. For the NTC reactions, RNase-free water was added in place of the RNA sample. The prepared cDNA samples were stored at −20±5° C. following analysis by qRT-PCR. Each PCR was performed in quadruplicate. A Primer Mix was prepared for each Gene Expression assay. A typical Primer Mix contained TaqMan Fast Advanced Master Mix (1×), Gene Expression Assay (1×, 900 nM forward and reverse primers) and RNase-free water. The Reaction Mix was prepared by adding the Primer Mix to cDNA. A percentage of samples (no less than 10%) included NAC (no amplification control) samples. […] Reactions were analyzed on a PCR sequence detection system. The relative quantity of the target cDNA compared with that of the control cDNA (GAPDH) was determined by the ΔΔCt method. Relative quantitation measures the change in mRNA expression in a test sample relative to that in a control sample (e.g., DMSO). This method assumes that the efficiency of the target amplification and the efficiency of the endogenous control amplification are approximately equal.
Data set [6] relates to CYP2B6 mRNA expression. The settings on record: human, hepatocytes, 24 h.
Description: as §3
The test system of data set [7] is CYP3A4 mRNA expression. The settings on record: human, hepatocytes, 24 h.
Description: as §3

T2 sequence (P33261 whole entry): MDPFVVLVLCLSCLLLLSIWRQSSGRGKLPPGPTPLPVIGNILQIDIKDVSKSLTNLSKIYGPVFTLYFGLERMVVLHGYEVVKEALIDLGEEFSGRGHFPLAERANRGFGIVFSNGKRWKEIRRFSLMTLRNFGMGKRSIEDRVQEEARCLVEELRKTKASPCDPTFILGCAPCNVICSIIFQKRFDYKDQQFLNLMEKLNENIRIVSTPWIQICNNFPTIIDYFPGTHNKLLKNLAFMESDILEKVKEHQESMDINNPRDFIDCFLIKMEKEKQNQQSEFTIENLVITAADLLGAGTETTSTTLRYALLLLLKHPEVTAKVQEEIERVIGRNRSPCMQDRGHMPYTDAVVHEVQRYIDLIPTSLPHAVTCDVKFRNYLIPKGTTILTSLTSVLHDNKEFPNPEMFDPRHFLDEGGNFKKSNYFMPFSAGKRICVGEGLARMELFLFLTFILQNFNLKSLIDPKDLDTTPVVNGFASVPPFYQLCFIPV

Take `[2H]C([2H])([2H])C(Nc1cc(-c2c[nH]c(C(=O)N[C@H](CO)c3cccc(Cl)c3)c2)c(Cl)cn1)C([2H])([2H])[2H]` [Formula 19, 4-(5-chloro-2-((propan-2-yl-1,1,1,3,3,3-d6)amino)pyridin-4-yl)-N-(1-(3-chiorophenyl)-2-hydroxyethyl)-1H-pyrrole-2-carboxamide]: the IC50 – broadly, the concentration needed to halve the response being measured – in data set [1] (preincubation 0 min) stood at 14 µM; in data set [1] (preincubation 30 min), 16 µM; in data set [2] (preincubation 0 min) it was 10 µM; in data set [2] (preincubation 30 min), 12 µM; in data set [3] (preincubation 0 min), 10 µM; in data set [3] (preincubation 30 min), 12 µM. Besides, the IC50 at 5 min in data set [4] (preincubation 0 min) was greater than 20 µM; in data set [4] (preincubation 30 min), 13 µM. Also, the results for the “Fold Change in mRNA Expression of CYP1A2” value in data set [5] (1 μM) and in data set [5] (20 μM) were 3.57 fold and 9.52 fold, respectively. The “Fold Change in mRNA Expression of CYP2B6” value in data set [6] (1 μM) is on record as 1.47 fold; in data set [6] (10 μM) it was 2.10 fold. In addition, the results for the “Fold Change in mRNA Expression of CYP3A4” value in data set [7] (1 μM) and in data set [7] (10 μM) were 2.06 fold and 9.42 fold, respectively.
For `[2H]C([2H])([2H])C([2H])(Nc1cc(-c2c[nH]c(C(=O)N[C@H](CO)c3cccc(Cl)c3)c2)c(Cl)cn1)C([2H])([2H])[2H]` [Formula 18, 4-(5-chloro-2-((propan-2-yl-d7)amino)pyridin-4-yl)-N-(1-(3-chlorophenyl)-2-hydroxyethyl)-1H-pyrrole-2-carboxamide], the IC50 in data set [1] (preincubation 0 min) is 12 µM; in data set [1] (preincubation 30 min), 16 µM; in data set [2] (preincubation 0 min), 9.6 µM; in data set [2] (preincubation 30 min) it was 11 µM; in data set [3] (preincubation 0 min), 9.6 µM; in data set [3] (preincubation 30 min), 11 µM. For the same compound, the IC50 at 5 min in data set [4] (preincubation 0 min) was greater than 20 µM; in data set [4] (preincubation 30 min), 14 µM. In addition, the “Fold Change in mRNA Expression of CYP1A2” value in data set [5] (1 μM) is recorded as 3.02 fold; in data set [5] (10 μM), 5.94 fold. The “Fold Change in mRNA Expression of CYP2B6” value in data set [6] (1 μM) is reported as 1.36 fold; in data set [6] (10 μM), 1.90 fold. Besides, the “Fold Change in mRNA Expression of CYP3A4” value was 1.83 fold in data set [7] (1 μM) and 5.39 fold in data set [7] (10 μM).
On to `Cl.[2H]C(C)(C)Nc1cc(-c2c[nH]c(C(=O)N[C@H](CO)c3cccc(Cl)c3)c2)c(Cl)cn1` [Formula 21A], for which the IC50 in data set [1] (preincubation 0 min) is 17 µM; in data set [1] (preincubation 30 min), 19 µM; in data set [2] (preincubation 0 min), 19 µM; in data set [2] (preincubation 30 min), 19 µM; in data set [3] (preincubation 0 min), 19 µM; in data set [3] (preincubation 30 min) it was 19 µM. Further, the IC50 at 5 min in data set [4] (preincubation 0 min) was greater than 20 µM; in data set [4] (preincubation 30 min), 17 µM. Besides, the “Fold Change in mRNA Expression of CYP1A2” value in data set [5] (20 μM) was 4.00 fold. For the same compound, the “Fold Change in mRNA Expression of CYP2B6” value came out at 1.08 fold in data set [6] (1 μM) and 2.04 fold in data set [6] (10 μM). In addition, the “Fold Change in mRNA Expression of CYP3A4” value is listed as 1.39 fold in data set [7] (1 μM) and 5.29 fold in data set [7] (10 μM).
As for `CC(C)Nc1cc(-c2c[nH]c(C(=O)N[C@H](CO)c3cccc(Cl)c3)c2)c(Cl)cn1` [Ulixertinib, reference compound], the IC50 came out at 11 µM in data set [1] (preincubation 0 min); 16 µM in data set [1] (preincubation 30 min); 8.5 µM in data set [2] (preincubation 0 min); 9.2 µM in data set [2] (preincubation 30 min); 8.5 µM in data set [3] (preincubation 0 min); 9.2 µM in data set [3] (preincubation 30 min). Besides, the IC50 at 5 min in data set [4] (preincubation 0 min) is greater than 20 µM; in data set [4] (preincubation 30 min), 14 µM. Besides, the “Fold Change in mRNA Expression of CYP1A2” value in data set [5] (1 μM) is 3.73 fold; in data set [5] (20 μM), 6.42 fold. Moreover, the “Fold Change in mRNA Expression of CYP2B6” value in data set [6] (1 μM) came out at 1.25 fold; in data set [6] (10 μM), 1.99 fold. The “Fold Change in mRNA Expression of CYP3A4” value in data set [7] (1 μM) was determined as 1.52 fold; in data set [7] (10 μM), 6.84 fold.
